Converted amounts (≈) assume the structure as drawn.
Tests used:
Cryptococcus neoformans = test: Antifungal MIC; type: cell-based
[1] = Toxicokinetics in the 28 day dog study of DIO-902 (with racemic ketoconazole group a); conditions: beagle, plasma; for AUC(0-t): AUC(0-12); for concentration at 0 h / concentration at 1 h / concentration at 2 h / concentration at 4 h / concentration at 8 h / concentration at 12 h: Drug concentration in plasma;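 on all read-outs here: beagle dogs dosed orally once daily within a 28-day GLP study, 3 animals per sex per group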
[2] = female, po, 2 mg/kg, dogs, 2 mg/kg oral, day 1, F
[3] = female, po, 2 mg/kg, dogs, 2 mg/kg oral, day 28, F
[4] = female, po, 6.5 mg/kg, dogs, 6.5 mg/kg oral, day 28, F
[5] = female, po, 6.5 mg/kg, dogs, 6.5 mg/kg oral, day 1, F
[6] = female, po, 20 mg/kg, dogs, 20 mg/kg oral, day 28, F
[7] = female, po, 20 mg/kg, dogs, 20 mg/kg oral, day 1, F
[8] = male, po, 2 mg/kg, dogs, 2 mg/kg oral, day 28, M
[9] = male, po, 2 mg/kg, dogs, 2 mg/kg oral, day 1, M

**Q.** What does the source list for `CC(=O)N1CCN(c2ccc(OC[C@@H]3CO[C@@](Cn4ccnc4)(c4ccc(Cl)cc4Cl)O3)cc2)CC1` [DIO-902, 2S,4R cis-1-acetyl-4-[4-[[2-(2,4-dichlorophenyl)-2-(1H-imidazol-1-ylmethyl)-1,3-dioxolan-4-yl]methoxyl]phenyl]piperazine]?
**A.** MIC (Cryptococcus neoformans; DSM11959, DSM strain 11959, 48 h): 0.03 µg/mL (≈ 0.0565 µM); MIC (Cryptococcus neoformans; DSM11960, DSM strain 11960, 48 h): 0.125 µg/mL (≈ 0.235 µM); Tmax ([1]; both, oral, 20 mg/kg, Tmax values, dogs, 2, 6.5 and 20 mg/kg, Day 1): 1 to 8 h; Tmax ([1]; both, oral, 20 mg/kg, Tmax values, dogs, 2, 6.5 and 20 mg/kg, Day 28): 1 to 12 h; Cmax ([1]; both, po, 20 mg/kg/day, dogs, 20 mg/kg/day, day 28): 9940 to 9950 ng/mL; AUC(0-t) ([1]; female, po, 2 mg/kg, dogs, 2 mg/kg oral, day 1, F, n = 1): 2570 ng·h/mL; AUC(0-t) ([1]; female, po, 2 mg/kg, dogs, 2 mg/kg oral, day 28, F, n = 1): 2760 ng·h/mL; Cmax [1, 2]: 450 ng/mL; Cmax [1, 3]: 750 ng/mL; concentration at 0 h [1, 2]: < 250 ng/mL; concentration at 1 h [1, 2]: < 250 ng/mL; concentration at 2 h [1, 2]: 270 ng/mL; concentration at 4 h [1, 2]: 280 ng/mL; concentration at 8 h [1, 2]: < 250 ng/mL; concentration at 12 h [1, 2]: < 250 ng/mL; concentration at 0 h [1, 3]: < 250 ng/mL; concentration at 1 h [1, 3]: 290 ng/mL; concentration at 2 h [1, 3]: 520 ng/mL; concentration at 4 h [1, 3]: 300 ng/mL; concentration at 8 h [1, 3]: < 250 ng/mL; concentration at 12 h [1, 3]: < 250 ng/mL; Tmax ([1]; female, po, 2 mg/kg, Tmax Range, dogs, 2 mg/kg oral, day 1, F): 2 to 4 h; Tmax ([1]; female, po, 2 mg/kg, Tmax Range, dogs, 2 mg/kg oral, day 28, F): 1 to 8 h; AUC(0-t) ([1]; female, po, 6.5 mg/kg, dogs, 6.5 mg/kg oral, day 1, F, n = 1): 4700 ng·h/mL; AUC(0-t) [1, 4]: 12900 ng·h/mL; Cmax [1, 5]: 2570 ng/mL; Cmax [1, 4]: 2410 ng/mL; concentration at 0 h [1, 5]: < 250 ng/mL; concentration at 1 h [1, 5]: < 250 ng/mL; concentration at 2 h [1, 5]: 440 ng/mL; concentration at 4 h [1, 5]: 2320 ng/mL; concentration at 8 h [1, 5]: 500 ng/mL; concentration at 12 h [1, 5]: < 250 ng/mL; concentration at 0 h [1, 4]: < 250 ng/mL; concentration at 1 h [1, 4]: 250 ng/mL; concentration at 2 h [1, 4]: 1250 ng/mL; concentration at 4 h [1, 4]: 1850 ng/mL; concentration at 8 h [1, 4]: 1270 ng/mL; concentration at 12 h [1, 4]: 340 ng/mL; Tmax ([1]; female, po, 6.5 mg/kg, Tmax Range, dogs, 6.5 mg/kg oral, day 1, F): 2 to 4 h; Tmax ([1]; female, po, 6.5 mg/kg, Tmax Range, dogs, 6.5 mg/kg oral, day 28, F): 2 to 8 h; AUC(0-t) ([1]; female, po, 20 mg/kg, dogs, 20 mg/kg oral, day 1, F, n = 2): 80600 ng·h/mL; AUC(0-t) [1, 6]: 77800 ng·h/mL; Cmax [1, 7]: 14700 ng/mL; Cmax [1, 6]: 9950 ng/mL; concentration at 0 h [1, 7]: < 250 ng/mL; concentration at 1 h [1, 7]: < 250 ng/mL; concentration at 2 h [1, 7]: 650 ng/mL; concentration at 4 h [1, 7]: 9720 ng/mL; concentration at 8 h [1, 7]: 9950 ng/mL; concentration at 12 h [1, 7]: 5440 ng/mL; concentration at 0 h [1, 6]: 2880 ng/mL; concentration at 1 h [1, 6]: 1780 ng/mL; concentration at 2 h [1, 6]: 2430 ng/mL; concentration at 4 h [1, 6]: 6420 ng/mL; concentration at 8 h [1, 6]: 9830 ng/mL; concentration at 12 h [1, 6]: 6530 ng/mL; Tmax ([1]; female, po, 20 mg/kg, Tmax Range, dogs, 20 mg/kg oral, day 1, F): 4 to 8 h; Tmax ([1]; female, po, 20 mg/kg, Tmax Range, dogs, 20 mg/kg oral, day 28, F): 8 to 12 h; AUC(0-t) ([1]; male, po, 2 mg/kg, dogs, 2 mg/kg oral, day 1, M, n = 1): 2390 ng·h/mL; AUC(0-t) [1, 8]: 3260 ng·h/mL; Cmax [1, 9]: 510 ng/mL; Cmax [1, 8]: 680 ng/mL; concentration at 0 h [1, 9]: < 250 ng/mL; concentration at 1 h [1, 9]: 400 ng/mL; concentration at 2 h [1, 9]: 450 ng/mL; concentration at 4 h [1, 9]: < 250 ng/mL; concentration at 8 h [1, 9]: < 250 ng/mL; concentration at 12 h [1, 9]: < 250 ng/mL; concentration at 0 h [1, 8]: < 250 ng/mL; concentration at 1 h [1, 8]: 660 ng/mL; concentration at 2 h [1, 8]: 540 ng/mL; concentration at 4 h [1, 8]: 380 ng/mL; concentration at 8 h [1, 8]: < 250 ng/mL; concentration at 12 h [1, 8]: < 250 ng/mL

— US11478471B2, “Methods and compositions for treating diabetes, metabolic syndrome and other conditions” (priority 2005, dated 2022)
